# Measured values taken from patent publication US12226386B2, “Compositions and methods for treating biofilms” (The Regents of the University of California, priority 2018, dated 2025).
# Assays:
# [1] = system: bacteria (S. aureus) biofilm and fungal (C. albicans) biofilm; assay: sustained inhibition biofilm assay, bacterial and fungal taken together; type: cell-based, Staphylococcus aureus; Candida albicans; settings: 1% amino acid
# Method: (§1) Other amino acids in the blood of animals could combat bacterial and fungal biofilm and therefore may be useful in treating these bacterial and fungal infections that would lie on the external surfaces of infected animals such as humans and could also be used to combat these pathogens on instruments and surfaces that need to be treated. Two types of biofilm assays were performed: a sustained inhibition assay and a disruption assay. The sustained inhibition assay assessed the compound's ability to prevent biofilm development throughout all stages of biofilm formation, while the disruption assay assessed the compound's ability to break up an existing mature biofilm.
# (§2) For fungal biofilm assays, all solutions were prepared in RPMI 1640 medium. All bacterial biofilm solutions were prepared in Tryptic Soy Broth (TSB), supplemented with 1% glucose (henceforth referred to as TSB-G). All subsequent procedures were performed in a manner that maintained sterility. A solution of each amino acid to be tested was prepared in weight to volume concentrations ranging from 0.1-5.0%. Amino acids were also tested in combinations. Compound solutions were homogenized with gentle agitation in the dark (4° C., 24 hours) before use.
# Fungal strains were streaked on Yeast Peptone Dextrose (YPD) agar plates and incubated at 30° C. for 48 hours. A single colony from each strain to be tested was inoculated into YPD broth and grown for 12 hours, at 30° C., shaking at 225 rpm. For the fungal biofilm inhibition assay, 1 μl of saturated overnight cell culture was added to either 80 μL of RPMI-1640 or RPMI-1640 supplemented with the amino acid compound solution to be tested, in a 384-well plate. […] Media was carefully aspirated and the biofilm was measured by optical density at 600 nm. […] Media was carefully aspirated and the biofilm was measured by optical density at 600 nm. […]
# Bacterial strains were streaked on Blood Agar plates (5% sheep blood in Tryptic Soy Agar) and incubated at 37° C. for 24 hours. […] Media was carefully aspirated and the biofilm was measured by optical density at 600 nm. […]
# [2] = system: C. albicans biofilms; assay: in vitro sustained inhibition biofilm assay, fungal; type: cell-based, Candida albicans; settings: 1% amino acid, p<0.001
# Method: (§3) Two types of biofilm assays were performed: a sustained inhibition assay and a disruption assay.
# as §2
# (§4) Fungal strains were streaked on Yeast Peptone Dextrose (YPD) agar plates and incubated at 30° C. for 48 hours. A single colony from each strain to be tested was inoculated into YPD broth and grown for 12 hours, at 30° C., shaking at 225 rpm. For the fungal biofilm inhibition assay, 1 μl of saturated overnight cell culture was added to either 80 μL of RPMI-1640 or RPMI-1640 supplemented with the amino acid compound solution to be tested, in a 384-well plate. […] Media was carefully aspirated and the biofilm was measured by optical density at 600 nm. Twelve replicates were performed for each tested condition and the reported values are normalized to the control (RPMI-1640 media only). For the fungal biofilm disruption assays, 80 μL of RPMI-1640 was added to the plate, along with 1 μL of overnight cell culture. […] Loosely bound cells were washed once with PBS and 80 μL of RPMI-1640 was added to the plate. […] Media was carefully aspirated from the mature biofilm and 80 μL of RPMI-1640, or RPMI-1640 supplemented with the amino acid compound solution to be tested, was gently added to the plate. […] Media was carefully aspirated and the biofilm was measured by optical density at 600 nm. Twelve replicates were performed for each tested condition and the reported values are normalized to the control (RPMI-1640 media only).
# The plate was further incubated for 24 hours at 37° C. with shaking (350 rpm). Media was carefully aspirated and the biofilm was measured by optical density at 600 nm.
# [3] = system: Candida and Staphylococcus biofilms; assay: biofilm assays (sustained inhibition and disruption), bacterial and fungal; type: cell-based, Candida albicans; Staphylococcus aureus; settings: Tables 4 and 5
# Method: In vitro biofilm formation was tested using two assays, sustained inhibition and disruption. Both assays assess biofilm formed on polystyrene plates. The first, tests the effects of amino acid solution on a developing biofilm, while the latter tests the effects of the solution on a pre-formed mature biofilm, both compared to media without supplemented amino acids.
# as §1, §2
# Fungal strains were streaked on Yeast Peptone Dextrose (YPD) agar plates and incubated at 30° C. for 48 hours. A single colony from each strain to be tested was inoculated into YPD broth and grown for 12 hours, at 30° C., shaking at 225 rpm. For the fungal biofilm inhibition assay, 1 μl of saturated overnight cell culture was added to either 80 μL of RPMI-1640 or RPMI-1640 supplemented with the amino acid compound solution to be tested, in a 384-well plate. The cells were allowed to adhere to the plate for 90 minutes at 37° C. shaking at 350 rpm. Loosely bound cells were washed once with phosphate buffered saline (PBS) and 80 μl of RPMI-1640, or RPMI-1640 supplemented with the amino acid compound solution was added to the plate. The plate was further incubated for 24 hours at 37° C. shaking at 350 rpm. Media was carefully aspirated and the biofilm was measured by optical density at 600 nm. Twelve replicates were performed for each tested condition and the reported values are normalized to the control (RPMI-1640 media only). For the fungal biofilm disruption assays, 80 μL of RPMI-1640 was added to the plate, along with 1 μL of overnight cell culture. The cells were allowed to adhere to the plate for 90 minutes at 37° C. shaking at 350 rpm. Loosely bound cells were washed once with PBS and 80 μL of RPMI-1640 was added to the plate. The plate was further incubated for 24 hours at 37° C. shaking at 350 rpm. Media was carefully aspirated from the mature biofilm and 80 μL of RPMI-1640, or RPMI-1640 supplemented with the amino acid compound solution to be tested, was gently added to the plate. The plate was further incubated for 24 hours at 37° C. shaking at 350 rpm. Media was carefully aspirated and the biofilm was measured by optical density at 600 nm. Twelve replicates were performed for each tested condition and the reported values are normalized to the control (RPMI-1640 media only).
# Bacterial strains were streaked on Blood Agar plates (5% sheep blood in Tryptic Soy Agar) and incubated at 37° C. for 24 hours. A single colony from each strain to be tested was inoculated in a TSB broth and grown for 12 hours, at 37° C. shaking at 225 rpm. For the bacterial biofilm inhibition assays, 1 μL of saturated overnight cell culture was added to either 80 μL of TSB-G, or TSB-G supplemented with the amino acid compound solution to be tested, in a 384-well plate. […]
# [4] = system: C. albicans biofilms; assay: in vitro biofilm disruption assay, fungal; type: cell-based, Candida albicans; settings: 1% amino acid, p<0.001
# Method: as §3, §2, §4
# The cells were allowed to adhere to the plate for 90 minutes at 37° C. with shaking (350 rpm). […] The plate was further incubated for 24 hours at 37° C. with shaking (350 rpm). […] The plate was further incubated for 24 hours at 37° C. with shaking (350 rpm). Media was carefully aspirated and the biofilm was measured by optical density at 600 nm.
SMILES,Reduce Both [1],Reduce F Biofilm [2],effect on Candida and Staphylococcus biofilms in inhibition and disruption assays [3],Reduce F Biofilm [4]
"N[C@@H](CC(=O)O)C(=O)O [Aspartic Acid, L-aspartic acid]",●● (two dots [i.e. ●●] signifies major effect (greater than about 30% change)),●● (two dots [i.e. ●●] signifies major effect (greater than about 30% change)),both inhibit and disrupt,●● (two dots [i.e. ●●] signifies major effect (greater than about 30% change))
"N[C@@H](CS)C(=O)O [Cysteine, L-cysteine]",●● (two dots [i.e. ●●] signifies major effect (greater than about 30% change)),●● (two dots [i.e. ●●] signifies major effect (greater than about 30% change)),both inhibit and disrupt,●● (two dots [i.e. ●●] signifies major effect (greater than about 30% change))
"N[C@@H](CCC(=O)O)C(=O)O [Glutamic Acid, L-glutamic acid]",●● (two dots [i.e. ●●] signifies major effect (greater than about 30% change)),●● (two dots [i.e. ●●] signifies major effect (greater than about 30% change)),both inhibit and disrupt,●● (two dots [i.e. ●●] signifies major effect (greater than about 30% change))
